# Results from patent US20110091570A1, “Compositions and Devices for Antisepsis and Anticoagulation” (priority 2008, published 2011).
# Values joined by “and” are separate entries in the source; they are usually repeats but may differ in a detail not shown here. Identical values can stand only once.
# How the values were obtained:
# [1] = tested on: citrate blood; assay: Routine coagulation tests, overall anticoagulant effect; assay type: biochemical, human
# Method: (§1) Whole blood was taken from volunteers and enriched with trisodium citrate (0.3 mL of a 0.106 molar solution per 3 mL whole blood) (S-Monovette®, Sarstedt, Nümbrecht, Germany). Routine coagulation tests were performed on the following samples:
# (§2) The following commercial coagulation tests were performed according to the prescription of the manufacturer: prothrombin time (PT) was determined using Thromborel® S test (Dade Behring GmbH, Marburg, Germany); activated partial thromboplastin time (aPTT) was determined using Pathromtin* SL test (Dade Behring GmbH, Marburg, Germany); and thrombin time (TT) was determined using BC Thrombin Reagent test (Dade Behring GmbH, Marburg, Germany).
# (§3) Whole blood was taken from a single volunteer and enriched with trisodium citrate (0.3 mL of a 0.106 molar solution per 3 mL whole blood) (S-Monovette®, Sarstedt, Nümbrecht, Germany). Portions of 1.8 mL citrate blood were mixed with 0.2 mL NCT in 0.9% saline. The following final (after dilution in blood) NCT concentrations were tested separately: 1% (55 mM); 0.5% (27.5 mM); 0.25% (13.75 mM); 0.1% (5.5 mM); 0.05% (2.75 mM); 0.025% (1.375 mM); and 0.01% (0.55 mM). A control without NCT was performed in parallel. The following commercial coagulation tests were performed according to the prescription of the manufacturer: prothrombin time (PT) was determined using Thromborel® S test (Dade Behring GmbH, Marburg, Germany), activated partial thromboplastin time (aPTT) was determined using Pathromtin* SL test (Dade Behring GmbH, Marburg, Germany); thrombin time (TT) was determined using BC Thrombin Reagent test (Dade Behring GmbH, Marburg, Germany); and fibrinogen was determined using Multifibren* U test (Dade Behring GmbH, Marburg, Germany).
# (§4) Whole blood was taken from 11 volunteers and enriched with trisodium citrate (0.3 mL of a 0.106 molar solution per 3 mL whole blood) (S-Monovette®, Sarstedt, Nümbrecht, Germany). Commercial coagulation tests (as described in Example 6) were performed with the following samples: […]
# [2] = tested on: Proteus mirabilis; assay: Bactericidal activity of NCT without and with heparin (CFU counts); assay type: cell-based
# [3] = tested on: methicillin-resistant Staphylococcus aureus; assay: as above; assay type: cell-based
# [4] = tested on: Escherichia coli, ATCC 11229; assay: Bactericidal activity of NCT with heparin in human whole blood; assay type: cell-based; conditions: 37° C.
# Method: FIG. 11 presents a plot of bactericidal activity of 1% NCT with 125 IE/mL heparin in human blood against Escherichia coli (ATCC 11229) at pH 7.1 and 37° C. Mean values±standard error of the mean of three independent experiments. P<0.01 between NCT and control samples.
# Bacteria (Staphylococcus aureus, ATCC 25923 and Escherichia coli, ATCC 11229) grown in tryptic soy broth overnight were washed twice in saline and suspended in human whole blood containing 125 IE/mL heparin. Different volumes of a saline solution of NCT sodium salt were added to the suspension so that the test samples contained 10%, 25%, 50%, and 75% blood. In addition, 100% blood plus 125 IE/mL heparin was tested at which NCT was directly dissolved in blood. The final NCT concentration after mixing blood and NCT solutions was 1% in all samples. Controls contained 100% blood plus 125 IE/mL heparin and 10%, 25%, 50% and 75% blood, respectively, in saline, plus 125 IE/mL heparin without NCT. All of the solutions were incubated at 37° C. and pH 7.36-7.44 (the pH of blood). After 1, 3, 5, 10, 15, 30, 45 and 60 minutes, aliquots of 100 μL were removed and diluted tenfold or 100-fold in 0.6% sodium thiosulfate solution to inactivate the NCT. Aliquots (50 μL) of these dilutions were spread on tryptic soy agar plates. The plates were incubated at 37° C. and colony forming units of bacteria were counted after 24 and 48 hours. […]
# [5] = tested on: human eyes; conditions: human eyes [Ref. 13]; cited from earlier work
# [6] = tested on: Staphylococcus aureus (ATCC 25923); assay: Bactericidal activity of NCT without and with heparin (CFU counts); assay type: cell-based
# Method: FIG. 1 presents a plot of bactericidal activity of 1% NCT without and with 125 IE/mL heparin against Staphylococcus aureus ATCC 25923 at pH 7.1 and 37° C. Mean values standard error of the mean of three independent experiments. P>0.05 between NCT without and NCT with heparin.
# NCT was dissolved in 0.1 M phosphate buffer containing either 125 IE/mL heparin or no heparin. The final NCT concentration was 1%. Various bacterial species were grown in tryptic soy broth overnight, were washed twice in saline and then suspended in the NCT and NCT/heparin solutions. The species were Staphylococcus aureus (ATCC 25923), Escherichia coli (ATCC 11229), Streptococcus pyogenes, Staphylococcus epidermidis, Pseudomonas aeruginosa, Proteus mirabilis, and methicillin-resistant Staphylococcus aureus. Controls were performed with the foregoing bacterial species suspended in 0.1 M phosphate buffer without additives and in 0.1 M phosphate buffer containing 125 IE/mL heparin. All of the solutions were incubated at 37° C. and pH 7.1. After 1, 3, 5, 8, and 10 minutes, aliquots of 100 μL were removed and diluted 10-fold or 100-fold in 0.6% sodium thiosulfate solution to inactivate the NCT. Aliquots (50 μL) of these dilutions were spread on tryptic soy agar plates. The plates were incubated at 37° C. and colony forming units of bacteria were counted after 24 and 48 hours. […]
# [7] = tested on: citrate blood; assay: Prothrombin time (PT), Thromborel S test; assay type: biochemical, human; conditions: for PT (%): Example 6, single volunteer; for Prothrombin time (PT) / Prothrombin time (PT), mean value: Example 7; for Prothrombin time (PT): individual subjects 1-11; for Prothrombin time (PT), mean value: mean of 11 subjects
# Method: as §1, §2, §3, §4
# [8] = 0.1% NCT, virtually identical experiments
# [9] = 1% NCT, 125 IE/mL heparin, pH 7.1, 37° C., 1-10 min
smiles,measurement,setting,value
"O=S(=O)(O)CCNCl [NCT, N-chlorotaurine]",effect on the anticoagulant activity of heparin,"[1]; Example 5, 1% NCT final concentration",does not counteract the anticoagulant activity of heparin
same,anticoagulant activity of NCT alone,"[1]; Example 5, 1% NCT without heparin",has anticoagulant activity
same,anticoagulant effect,[1]; NCT 0.55 mmol/L,significant anticoagulant effect
same,anticoagulant effect,[1]; NCT 1.375 mmol/L,strong effect
same,influence of heparin on the killing of bacteria,[2]; [8],no statistically significant influence of heparin on the killing of bacteria
same,killing activity of NCT with vs without heparin,[2]; [9],no difference in the killing activity
same,influence of heparin on the killing of bacteria,[3]; [8],no statistically significant influence of heparin on the killing of bacteria
same,killing activity of NCT with vs without heparin,[3]; [9],no difference in the killing activity
same,bactericidal activity in blood,[4]; 1% NCT dissolved in 100% blood plus 125 IE/mL heparin,no significant bactericidal activity was detected
same,bactericidal activity in blood,"[4]; 1% NCT in 10%, 25%, 50% and 75% blood plus 125 IE/mL heparin",demonstrated bactericidal activity
same,tolerability in topical and localized applications,[5],relatively safe and well-tolerated
same,influence of heparin on the killing of bacteria,[6]; [8],no statistically significant influence of heparin on the killing of bacteria
same,killing activity of NCT with vs without heparin,[6]; [9],no difference in the killing activity
same,prothrombin time,"[7]; Example 5, 1% NCT final concentration in citrate blood",above the test limits
same,PT (%),[7]; 0.01% (0.55 mM) NCT final,91.4%
same,PT (%),[7]; 0.025% (1.375 mM) NCT final,70.6%
same,PT (%),[7]; 0.05% (2.75 mM) NCT final,33.4%
same,PT (%),[7]; 0.1% (5.5 mM) NCT final,<limit
same,PT (%),[7]; 0.25% (13.75 mM) NCT final,<limit
same,PT (%),[7]; 0.5% (27.5 mM) NCT final,<limit
same,PT (%),[7]; 1% (55 mM) NCT final,<limit
same,Prothrombin time (PT),[7]; 0.01% NCT,70% and 59% and 95% and 62% and 88% and 61% and 86% and 72% and 77% and 74% and 79%
same,"Prothrombin time (PT), mean value",[7]; 0.01% NCT,74.8%
same,Prothrombin time (PT),[7]; 0.025% NCT,28% and 20% and 50% and 10% and 21% and 16% (2×) and 25% and 36% and 24% and 32%
same,"Prothrombin time (PT), mean value",[7]; 0.025% NCT,25.3%
